The text below walks through data of patent publication US5667764A, “Compounds, compositions and methods for binding bio-affecting substances to surface membranes of bio-particles” (Zynaxis, Inc., priority 1992, dated 1997).

Data set [1] concerns rabbit red blood cells. Description: Binding of conjugate to washed rabbit red blood cells, flow cytometry. Format: cell-based. The following applies: ex vivo, 100 uM. Here is the method: The conjugate of Example 3d. […] The fluorescent moiety of the conjugate allows its ready detection on RBCs by flow cytometry. When conjugate labeled rabbit RBCs are injected in the rabbit hind-limb, a reduction in perfusion pressure occurs, the magnitude of which is related to the number of injected cells.
(Flow cytometry measures light scatter and fluorescence of single cells or particles in a stream.)

Data set [2] concerns rabbit red blood cells. Description: In vivo stability of conjugate on red blood cells. As for the experimental part: To study the in vivo characteristics of red blood cells labeled with the conjugate of Example 3d., above, 0.5 ml of fresh anticoagulated blood from each of 2 rabbits was labeled with the conjugate (final concentration, 10 μM) and injected back in the same rabbit from which the blood was taken. After the conjugate labeling but prior to injection, an aliquot of labeled cells was examined by flow cytometry to insure adequate labeling. Following in vivo administration of the labeled cells, blood samples were removed at 30 minutes, and then 1, 2, 3, 4, and 7 days and examined by flow cytometry for fluorescent cells.

In data set [3] the test system is human RBCs. Description: Flow cytometry of conjugate-labeled human RBCs with anti-substance P antibody. Format: cell-based. As for the experimental part: Specifically, untreated RBCs and conjugate-labeled RBCs were analyzed to determine if:
1. The conjugate was incorporated on the surface of cells (FIG. 3A comparison).
2. Fluorescein isothiocyanate (FITC) conjugated goat anti-rabbit antibodies nonspecifically bound to the conjugate-labeled or non-labeled cells (FIG. 3B comparison), or
3. rabbit anti-substance P antibodies+FITC anti-rabbit antibodies specifically bound to the conjugate-labeled RBCs (FIG. 3C comparison).

For data set [4], the system named is rabbit hind limb (femoral arterial bed), substance P receptors. Description: Vascular response in rabbit blood perfused hind limb preparation. Format: in vivo. The following applies: for ED50: calculated by logistic function, three rabbits; for Effect of antagonist [D-Pro^2,D-Trp^7.9]-substance P on the response: during infusion of antagonist; for Dose at which maximum fall in pressure is achieved / Threshold (minimum) dose required to produce a fall in perfusion pressure / Hind-limb perfusion pressure response: local injection; for Hind-limb perfusion pressure response: no antagonist. The source says: The in vivo receptor pharmacology of the compound produced in Example 3d., above, was studied in a rabbit blood perfused hind limb preparation similar to that described by U. Forstermann et al., J. Pharmacol. Exp. Ther., 234: 1055-61 (1987). Blood from a pentobarbital anesthetized, artificially ventilated rabbit was withdrawn from a cannulated carotid artery, passed within medical grade silastic tubing through a constant speed roller pump, and directed to a cannulated femoral artery. Distal perfusion pressure in the femoral arterial bed was measured (in mm Hg) by means of a micropressure transducer (Millar) passed down the perfusion tubing so as to lie just beyond the tip of the femoral catheter. Initially, pump speed was adjusted so that distal perfusion pressure approximated systemic mean arterial blood pressure after which blood flow was kept constant for the remainder of each experiment. Changes in resistance then varied directly as distal perfusion pressure in a manner similar to that described by Ohm's law, such that:
Vascular Resistance=Perfusion Pressure Blood Flow
Thus, by maintaining blood flow constant for the duration of each experiment, changes in distal perfusion pressure directly reflected vascular resistance such that a decrease in pressure signifies vasodilation and an increase in pressure signifies vasoconstriction. Direct injection into the perfusion circuit could thus be used to assess the vascular biology and pharmacology of substances believed to exert actions on in vivo vascular smooth muscle tone.

Data set [5] deals with erythrocyte membrane ghosts. Description: Relative membrane retention in erythrocyte membrane ghosts (iodination study). Format: binding. As to conditions: 24 hours, 37° C., PBS+EDTA+5% BSA. Here is the method: Relative membrane retention was determined using erythrocyte membrane ghosts prepared by NH4 Cl lysis (Slezak and Horan, Blood, supra). Ghosts were labeled at 4×10^8 /ml with 10 μM compounds for 5 minutes at room temperature, using previously described procedures. However, post-labeling washes were carried out using PBS containing 1 mM EDTA and 5% BSA. After the final wash, ghosts were resuspended at 4×10^8 /ml in PBS+EDTA+5% BSA and incubated for 24 hours at 37° C. At 24 hours, duplicate 50 μl aliquots were withdrawn from a) the well mixed suspension of ghosts (for determination of total compound present), and b) the supernatant remaining after ghosts were pelleted for 15 minutes at 12,500×g (for determination of unbound compound present). Aliquots were extracted by admixture with 200 μl of 100% ethanol and fluorescence intensity of each extract measured using the Fluoroskan II fluorescence microplate reader. Percent compound retained was calculated as
total compound--unbound compound×100/total compound

Data set [6] has as its system cells (red cells). The following applies: 20 uM.
The test system of data set [7] is cells (red cell membranes). Put plainly: Number of molecules of compound incorporated per cell. Format: cell-based. The following applies: 10 μM compounds. As for the experimental part: Number of molecules of compound incorporated per cell was determined for cells labeled with 10 μM compounds. An aliquot of 10^6 cells (10 ul) was withdrawn from the washed cells after final resuspension and counting, compounds were extracted from the cell membrane by admixture with 250 μl of 100% ethanol, and the fluorescence intensity of 200 μl of the extract was measured using a Fluoroskan II fluorescence microplate reader and filter combination. Concentration of compound in each extract was determined from a calibration curve of known compound concentrations made up in 100% ethanol and measured on the Fluoroskan II. Number of molecules of compound per cell was then calculated from the known extract concentration, total volume of extract, and known number of cells extracted. Calculated values were (4.0±0.4)×10^6 for compound T (1.3±0.2)×10^6 for compound AA and (2.5±0.7)×10^6 for compound AB.

Data set [8] concerns membrane ghosts. Description: Membrane binding stability (MBS) assay in membrane ghosts with 5% albumin. As to conditions: 24 hours, Table III. The source says: Determination of Membrane Binding Stability
For example, very stable binding to membranes might be required for applications such as delivery of therapeutic radionuclides to tumor sites, as loss of compound could lead to the radionuclide producing its toxic effect at non-tumor sites. On the other hand, more rapid loss of compound from biomembranes may be desirable for application involving controlled delivery rates of therapeutic agents. Accordingly, there is described hereinbelow an assay for determining MBS under conditions approximating those found in vivo.
In carrying out this assay, approximately physiological concentrations of serum albumin (5%) are used. […] To better approximate the effects of large fluid volumes to which labelled cells are exposed in vivo, the assay for MBS is carried out by suspending a decreasing number of labeled membrane ghosts in a fixed volume of albumin-containing saline. At 24 hours, the total amount of label present is determined by sampling the well mixed suspension; subsequently, the membrane ghosts are pelleted by centrifugation and the amount of label released into the supernatant is determined and expressed as a percent of total label. Percent retention is plotted against number of ghosts per ml. of suspension, and MBS is determined as the area under the curve between 5×10^7 ghosts/ml. and 4×10^8 ghosts/ml.

Data set [9] concerns rabbit red blood cells. The following applies: native Substance P; cited from earlier work.

As for `CCCCCCCCCCCCCCCCCCCCCC[N+]1=C(C=CC=C2N(CCCCCCCCCCCCCC)c3ccc(CNC(=O)c4ccc(C(=O)NCCCC[C@H](NC(=O)[C@@H]5CCCN5C(=O)[C@@H](N)CCCNC(=N)N)C(=O)N5CCC[C@H]5C(=O)N[C@@H](CCC(N)=O)C(=O)N[C@@H](CCC(N)=O)C(=O)N[C@@H](Cc5ccccc5)C(=O)N[C@@H](Cc5ccccc5)C(=O)NCC(=O)N[C@@H](CC(C)C)C(=O)N[C@@H](CCSC)C(N)=O)cc4)cc3C2(C)C)C(C)(C)c2ccccc21` [conjugate of Example 3d], the “Binding to red blood cells” value in data set [1] is listed as “readily binds to washed rabbit red blood cells”. Besides, the “In vivo dissociation from labeled cells” value in data set [2] (up to 7 days) is “relatively slowly”. In data set [2] (vs free peptide), the “Binding to red cells and effect in circulation” value was “bind stably to red cells and to provide a protracted therapeutic effect in circulation”. In data set [3] (10 μM, FIG. 3A), the “Red fluorescent signal of labeled cells” value is “increased red fluorescent signal when compared with the unlabeled cells”. Also, in data set [3] (FIG. 3C), the “Recognition of cell-bound Substance P by anti-substance P antibody” value is “significant amount of both green and red fluorescence detectable on the cells”. Moreover, the “Perfusion pressure response to conjugate labeled RBCs” value in data set [4] (10^6 -10^9 labeled RBCs injected) is reported as “graded decreases in perfusion pressure in the rabbit hind limb preparation”. For the same molecule, in [4], the ED50 was 34 pmol, the “Effect of antagonist [D-Pro^2,D-Trp^7.9]-substance P on the response” value was “inhibited by [D-Pro^2,D-Trp^7.9 ]-substance P”, the “Dose at which maximum fall in pressure is achieved” value was 1000 pmol and the “Threshold (minimum) dose required to produce a fall in perfusion pressure” value is 1 to 10 pmol. Moreover, the “Hind-limb perfusion pressure response” value in data set [4] was “brief, dose-related decreases in hind-limb perfusion pressure”. Further, the “Hind-limb perfusion pressure response” value in data set [4] (listed as Substance P-lipophilic cyanine conjugate of Example 3.d.) was “capable of vasodilative activity which is qualitatively similar to that of native Substance P”. Further, in [4] (supernatant fractions of labeled RBCs), the “Vasodilator activity of supernatant fraction of labeled RBCs” value is recorded as “contained a significant portion of the biological activity of the original cell suspension”.

Regarding `CCCCCCCCCCCCCCCCCCCCCC[N+]1=C(C=CC=C2N(CCCCCCCCCCCCCC)c3ccc(CNC=O)cc3C2(C)C)C(C)(C)c2ccccc21` [AB], the Percent compound retained in data set [5] is given as 96.8±1.3%. Further, the Viability and recovery in [6] is 70-80%. Further, in [7], the “Number of molecules of compound incorporated per cell” value was “(2.5±0.7)×10^6 molecules of compound per cell”. Besides, the MBS in [8] was 91 ± 0.5%.

With `CSCC[C@H](NC(=O)[C@H](CC(C)C)NC(=O)CNC(=O)[C@H](Cc1ccccc1)NC(=O)[C@H](Cc1ccccc1)NC(=O)[C@H](CCC(N)=O)NC(=O)[C@H](CCC(N)=O)NC(=O)[C@@H]1CCCN1C(=O)[C@H](CCCCN)NC(=O)[C@@H]1CCCN1C(=O)[C@@H](N)CCCNC(=N)N)C(N)=O` [Substance P, reference compound], in data set [4], the ED50 is 0.13 pmol, the “Effect of antagonist [D-Pro^2,D-Trp^7.9]-substance P on the response” value is “inhibited by [D-Pro^2,D-Trp^7.9 ]-substance P”, the “Dose at which maximum fall in pressure is achieved” value was in the range of 3 to 10 pmol and the “Threshold (minimum) dose required to produce a fall in perfusion pressure” value is recorded as “approximately 0.003 pmoles”. Besides, the “Hind-limb perfusion pressure response” value in [4] is listed as “brief, dose-related decreases in hind-limb perfusion pressure”. In addition, the “Relative potency of substance P vs conjugate” value in data set [4] (ratio of ED50) was determined as 250 fold. Besides, in [9], the Lifetime in circulation entry was “minutes”.
